Test results from patent USRE47193E1, “Selectively substituted quinoline compounds” (EISAI R&D MANAGEMENT CO., LTD., priority 2013, dated 2019).
pIC50: −log10 of the molar value. Where “and” joins values, the source holds several entries; their conditions need not be identical. Identical values can stand only once. Like-named read-outs stand apart in the source and are kept apart here.

Molecular target: T1, Human TLR7 (Homo sapiens, UniProt Q9NYK1)
T1 construct: stably and individually express human TLR4, TLR7 or TLR9 full-length ORF cDNAs; host or cells: HEK-293 (ATCC) with ELAM-1 NF-kappaB luciferase reporter
T1 sequence (Q9NYK1 27-1049): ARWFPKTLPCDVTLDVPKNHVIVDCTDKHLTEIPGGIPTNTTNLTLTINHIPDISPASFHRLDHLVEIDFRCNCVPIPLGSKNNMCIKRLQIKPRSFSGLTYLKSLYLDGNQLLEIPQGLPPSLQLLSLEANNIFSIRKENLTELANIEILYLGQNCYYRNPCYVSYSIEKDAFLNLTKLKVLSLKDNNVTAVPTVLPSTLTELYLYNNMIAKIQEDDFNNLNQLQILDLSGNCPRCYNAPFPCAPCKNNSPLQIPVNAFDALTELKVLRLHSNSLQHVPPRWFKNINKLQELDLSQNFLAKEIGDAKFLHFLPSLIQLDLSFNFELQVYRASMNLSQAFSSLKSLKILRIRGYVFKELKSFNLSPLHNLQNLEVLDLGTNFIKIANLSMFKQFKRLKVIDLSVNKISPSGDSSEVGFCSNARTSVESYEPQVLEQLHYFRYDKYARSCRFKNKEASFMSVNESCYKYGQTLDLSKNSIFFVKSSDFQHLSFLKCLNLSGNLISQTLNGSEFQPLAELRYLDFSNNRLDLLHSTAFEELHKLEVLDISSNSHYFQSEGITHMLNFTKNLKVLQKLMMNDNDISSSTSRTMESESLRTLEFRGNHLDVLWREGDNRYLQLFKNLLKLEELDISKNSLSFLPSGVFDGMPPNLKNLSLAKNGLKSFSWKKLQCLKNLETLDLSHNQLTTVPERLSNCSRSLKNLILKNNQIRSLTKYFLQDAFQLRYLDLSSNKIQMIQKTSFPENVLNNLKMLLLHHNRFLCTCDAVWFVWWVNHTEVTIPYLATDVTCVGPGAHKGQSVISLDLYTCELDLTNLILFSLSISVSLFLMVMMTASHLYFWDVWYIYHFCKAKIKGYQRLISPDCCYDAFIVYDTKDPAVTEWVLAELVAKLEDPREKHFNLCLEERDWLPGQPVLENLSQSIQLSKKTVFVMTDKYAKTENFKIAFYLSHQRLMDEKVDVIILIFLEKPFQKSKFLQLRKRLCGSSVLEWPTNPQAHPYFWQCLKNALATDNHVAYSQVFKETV
Test: HEK-293 human TLR7 NF-kappaB luciferase reporter assay (CL097)
Assay type: cell-based
Procedure: Effects on mouse TLR7 were also compared. Cells were stimulated overnight with TLR7/8 agonist CL097 at pre-determined ED70-80: 3 ug/ml for HEK-hTLR7, 1.5 ug/ml for HEK-mTLR7 and 12 ug/ml for HEK-hTLR8, before reading luminescence intensity. Three tests were performed and IC50 value was determined using Graphpad Prism 6 nonlinear regression curve fit.
HEK-293 cells (ATCC) were engineered to stably express a NF-kappaB transcription factor inducible E-selectin (ELAM-1) luciferase reporter derived from the plasmid pGL3 (Promega) containing base pairs −2241 bp to −254 bp from the promoter of the human E-selectin gene (Accession No. NM_000450). These cells were then subsequently engineered to stably and individually express human TLR4, TLR7 or TLR9 full-length ORF cDNAs. Human TLR4 cDNA (Accession No. NM_138554) was cloned into pcDNA 3.0 expression vector (Invitrogen). TLR4 transfected cells were also engineered to express human MD-2 co-receptor [MD-2 cDNA (Accession No. NM_015364) was cloned into the pEF-BOS vector] and were supplemented with 10 nM soluble CD14 (R&D Systems) in the media to optimize LPS responsiveness. Human TLR9 cDNA (Accession No. NM_017442) was cloned into the pBluescript II KS vector (Agilent). Human TLR7 cDNA (Accession No. NM_016562) was obtained from OriGene. HEK-293 cells stably expressing human TLR8 (Accession No. NM_138636) or mouse TLR7 (Accession No. NM_133211) were purchased from InvivoGen and were then stably transfected with pNiFty2(NF-kappaB)-luciferase reporter plasmid (InvivoGen). Each cell type was plated in Dulbecco's modified Eagle's medium (DMEM) containing 10% fetal bovine serum (FBS) at a density of 2.22×10^5 cells/ml into a 384-well plate and incubated for 2 days at 37° C., 5% CO2. Varying concentrations of antagonist compounds were then added. Cells were then incubated for another 30 minutes before adding the appropriate TLR agonist as follows (final concentrations indicated): lipopolysaccharide (LPS; Sigma) at 10 ng/ml for TLR4, CL097 (InvivoGen) at 3 ug/ml for human TLR7 and TLR8 and mouse TLR7, and CvG-2006-2A [sequence: […] (SEQ ID NO: 1) with phosphorothioate backbone, synthesized by Sigma-Aldrich] at 0.6 uM for TLR9.

With C[C@@H]1CN(c2ccc(C#N)c3ncccc23)C[C@H](C(=O)N[C@H]2CNC[C@H]2F)O1.Cl [ER-899742, (2R,6R)-4-(8-cyanoquinolin-5-yl)-N-[(3S,4R)-4-fluoropyrrolidin-3-yl]-6-methylmorpholine-2-carboxamide hydrochloride] the pIC50 (IC50, HEK-293, ligand CL097, analyte NFkB-luciferase (Table 1)) was 8.22, the pIC50 (IC50, HEK-hTLR7, CL097 3 ug/ml, individual tests 1-3) was 7.64 and 7.59 and the pIC50 (IC50 average, HEK-hTLR7, CL097 3 ug/ml, average of three tests) was 7.62.
With CCN(CCO)CCCC(C)Nc1ccnc2cc(Cl)ccc12 (centres unmarked) [HCQ, hydroxychloroquine, reference compound] the pIC50 (HEK-hTLR7, CL097 3 ug/ml, average of three tests, read-out: IC50 average) was 5.04 and the pIC50 (HEK-hTLR7, CL097 3 ug/ml, individual tests 1-3, read-out: IC50) was 5.17 and 4.84 and 5.23.
